Molecular target: T1, DP receptor (Homo sapiens, UniProt Q13258)
T1 construct: the human cell line LS174T, which expresses the endogenous DP receptor; endogenous in cells; host or cells: LS174T (human cell line)
T1 sequence (Q13258 1-359): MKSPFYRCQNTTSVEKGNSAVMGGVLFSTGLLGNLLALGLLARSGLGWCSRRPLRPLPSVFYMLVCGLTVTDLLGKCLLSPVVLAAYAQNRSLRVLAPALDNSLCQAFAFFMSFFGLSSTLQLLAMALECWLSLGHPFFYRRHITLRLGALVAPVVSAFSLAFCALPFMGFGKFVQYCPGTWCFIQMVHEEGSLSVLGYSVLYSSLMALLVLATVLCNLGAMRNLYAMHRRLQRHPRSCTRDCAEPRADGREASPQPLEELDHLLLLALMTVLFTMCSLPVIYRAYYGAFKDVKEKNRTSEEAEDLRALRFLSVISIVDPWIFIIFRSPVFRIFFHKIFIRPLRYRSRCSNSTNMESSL
Assay: SPA cAMP assay in human LS174 T cells (human DP functional assay)
Format: cell-based
Conditions: concentration of the compound producing 50% inhibition in the SPA cAMP assay in human LS174 T cells; PGD2 15 nM final
Text: As used in the examples and preparations that follow, as well as the rest of the application, the terms used therein shall have the meanings indicated: “kg” refers to kilograms, “g” refers to grams, “mg” refers to milligrams, “μg” refers to micrograms, “mol” refers to moles, “mmol” refers to millimoles, “M” refers to molar, “mM” refers to millimolar, “μM” refers to micromolar, “nM” refers to nanomolar, “L” refers to liters, “mL” or “ml” refers to milliliters, “μL” refers to microliters, “° C.” refers to degrees Celsius, “mp” or “m.p.” refers to melting point, “bp” or “b.p.” refers to boiling point, “mm of Hg” refers to pressure in millimeters of mercury, “cm” refers to centimeters, “nm” refers to nanometers, “abs.” refers to absolute, “conc.” refers to concentrated, “c” refers to concentration in g/mL, “rt” refers to room temperature, “TLC” refers to thin layer chromatography, “HPLC” refers to high performance liquid chromatography, “i.p.” refers to intraperitoneally, “i.v.” refers to intravenously, “s”=singlet, “d”=doublet; “t”=triplet; “q”=quartet; “m”=multiplet, “dd”=doublet of doublets; “br”=broad, “LC”=liquid chromatograph, “MS”=mass spectrograph, “ESI/MS”=electrospray ionization/mass spectrograph, “RT”=retention time, “M”=molecular ion, “PSI”=pounds per square inch, “DMSO”=dimethyl sulfoxide, “DMF”=N,N-dimethylformamide, “CDI”=1,1′-carbonyldiimidazole, “DCM” or “CH2Cl2”=dichloromethane, “HCl”=hydrochloric acid, “SPA”=Scintillation Proximity Assay, “ATTC”=American Type Culture Collection, “FBS”=Foetal Bovine Serum, “MEM”=Minimal Essential Medium, “CPM”=Counts Per Minute, “EtOAc”=ethyl acetate, “PBS”=Phosphate Buffered Saline, “TMD”=transmembrane domain, “IBMX”=3-isobutyl-1-methylxanthine, “cAMP”=cyclic adenosine monophosphate, “IUPAC”=International Union of Pure and Applied Chemistry, “MHz”=megahertz, “PEG”=polyethylene glycol, “MeOH”=methanol, “N”=normality, “THF”=tetrahydrofuran, “h”=hours, “min”=minute(s), “MeNH2”=methyl amine, “N2”=nitrogen gas, “iPrOH”=isopropyl alcohol, “O.D.”=outer diameter, “MeCN” or “CH3CN”=acetonitrile, “Et2O”=ethyl ether, “TFA”=TFA, “Prep LC”=preparatory “flash” liquid chromatography, “SPE”=solid phase extraction, “LAH”=lithium aluminum hydride, “pmol”=picomolar, “heptane”=n-heptane, “HMBA-AM” resin=4-hydroxymethylbenzoic acid amino methyl resin, “PdCl2(dppf)2”=1,1′-bis(diphenylphosphino)ferrocene-palladium (II) dichloride DCM complex, “HBTU”=2-(1H-benzotriazol-1yl)-1,1,3,3-tetramethyluronium hexafluorophosphate, “DIEA”=diisopropylethylamine, “CsF”=cesium fluoride, “LiOH”=lithium hydroxide, “˜”=approximately, “IC50”=the concentration of the compound producing 50% inhibition in the SPA cAMP assay in human LS174 T cells.
The inhibitory effects of the compounds according to the invention are assessed in a human DP functional assay. A cAMP assay is employed using the human cell line LS174T, which expresses the endogenous DP receptor. The protocol is similar to that described previously (Wright D H, Ford-Hutchinson A W, Chadee K, Metters K M, The human prostanoid DP receptor stimulates mucin secretion in LS174T cells, Br J Pharmacol. 131(8):1537-45 (2000)).
Protocol for SPA cAMP Assay in Human LS174 T Cells
• PGD2 (Cayman Chemical Cat#12010) • IBMX (Sigma Cat# 5879) • cAMP SPA direct screening assay system (Amersham code RPA 559) • 96-well cell plates (Wallac Cat#1450-516) • Wallac 1450 Microplate Trilux scintillation counter (PerkinElmer) • Plate sealers • Eppendorf tubes • Dulbecco's Phosphate-Buffered Saline (PBS) (Invitrogen Cat#14040-133) • Distilled water • Vortex • Magnetic stirrer and stirrer bars
Add 50 μL of […] IBMX into 100 mL PBS to make a final concentration of 100 μM and sonicate at 30° C. for 20 minutes.
Dissolve 1 mg PGD2 (FW, 352.5) in 284 μL DMSO to make 10 mM stock solution and store at […]. Before each assay, it is freshly prepared. Add 3 μL of 10 mM stock solution to […], mix it thoroughly, and transfer 10 mL to 40 mL PBS. […]

IC50 | SMILES
20 nM | O=C(O)Cc1c(-c2ccc(Cl)c(S(=O)(=O)NCCc3ccccc3OC(F)(F)F)c2)[nH]c2ccccc12 [Example 2(d), (2-{4-Chloro-3-[2-(2-trifluoromethoxy-phenyl)-ethylsulfamoyl]-phenyl}-1H-indol-3-yl)-acetic Acid]
7 nM | O=C(O)Cc1c(-c2ccc(Cl)c(S(=O)(=O)NCCCc3ccccc3)c2)[nH]c2ccccc12 [Example 2(f), {2-[4-Chloro-3-(3-phenyl-propylsulfamoyl)-phenyl]-1H-indol-3-yl}-acetic Acid]
3 nM | O=C(O)Cc1c(-c2ccc(Cl)c(S(=O)(=O)NCc3c(Cl)cccc3Cl)c2)[nH]c2ccccc12 [Example 1(b), {2-[4-Chloro-3-(2,6-dichloro-benzylsulfamoyl)-phenyl]-1H-indol-3-yl}-acetic Acid]
2 nM | CS(=O)(=O)NC(=O)Cc1c(-c2ccc(Cl)c(S(=O)(=O)NC3CCCCC3)c2)[nH]c2ccccc12 [Example 9, 2-Chloro-N-cyclohexyl-5-[3-(2-methanesulfonylamino-2-oxo-ethyl)-1H-indol-2-yl]-benzenesulfonamide]
14 nM | O=C(Cc1c(-c2ccc(Cl)c(S(=O)(=O)NC3CCCCC3)c2)[nH]c2ccccc12)NS(=O)(=O)C(F)(F)F [Example 11, 2-Chloro-N-cyclohexyl-5-[3-(2-oxo-2-trifluoromethanesulfonylamino-ethyl)-1H-indol-2-yl]-benzenesulfonamide]
3.3 nM | COc1cccc(CCNS(=O)(=O)c2cc(-c3[nH]c4ccccc4c3CC(=O)O)ccc2Cl)c1 [Example 2(b), (2-{4-Chloro-3-[2-(3-methoxy-phenyl)-ethylsulfamoyl]-phenyl}-1H-indol-3-yl)-acetic Acid]
0.2 nM | O=C(O)Cc1c(-c2ccc(Cl)c(S(=O)(=O)NC3CCCCC3)c2)[nH]c2cccc(Cl)c12 [Example 4, [4-Chloro-2-(4-chloro-3-cyclohexylsulfamoyl-phenyl)-1H-indol-3-yl]-acetic Acid]
3 nM | COc1ccc(CCNS(=O)(=O)c2cc(-c3[nH]c4ccccc4c3CC(=O)O)ccc2Cl)cc1 [Example 2(c), (2-{4-Chloro-3-[2-(4-methoxy-phenyl)-ethylsulfamoyl]-phenyl}-1H-indol-3-yl)-acetic Acid]
0.5 nM | CCc1ccc(-c2[nH]c3ccccc3c2CC(=O)O)cc1S(=O)(=O)NC1CCCCC1 [Example 13, [2-(3-cyclohexylsulfamoyl-4-ethyl-phenyl)-1H-indol-3-yl]-acetic Acid]
3.8 nM | COc1ccccc1CCNS(=O)(=O)c1cc(-c2[nH]c3ccccc3c2CC(=O)O)ccc1Cl [Example 2(a), (2-{4-Chloro-3-[2-(2-methoxy-phenyl)-ethylsulfamoyl]-phenyl}-1H-indol-3-yl)-acetic Acid]
15 nM | O=C(Cc1c(-c2ccc(Cl)c(S(=O)(=O)NC3CCCCC3)c2)[nH]c2ccccc12)Nc1nnn[nH]1 [Example 12, 2-[2-(4-Chloro-3-cyclohexylsulfamoyl-phenyl)-1H-indol-3-yl]-N-(1H-tetrazol-5-yl)-acetamide]
106 nM | O=C(O)Cc1c(-c2ccc(Cl)c(S(=O)(=O)Cc3cccc(Cl)c3)c2)[nH]c2ccccc12 [Example 15, {2-[4-Chloro-3-(3-chloro-phenylmethanesulfonyl)-phenyl]-1H-indol-3-yl}-acetic Acid]
3.7 nM | O=C(O)Cc1c(-c2ccc(Cl)c(S(=O)(=O)NC3CCCCC3)c2)[nH]c2c(Cl)cccc12 [Example 8, [7-Chloro-2-(4-chloro-3-cyclohexylsulfamoyl-phenyl)-1H-indol-3-yl]-acetic Acid]
2.7 nM | CCS(=O)(=O)NC(=O)Cc1c(-c2ccc(Cl)c(S(=O)(=O)NC3CCCCC3)c2)[nH]c2ccccc12 [Example 10, 2-Chloro-N-cyclohexyl-5-[3-(2-ethanesulfonylamino-2-oxo-ethyl)-1H-indol-2-yl]-benzenesulfonamide]
2 nM | O=C(O)Cc1c(-c2ccc(Cl)c(S(=O)(=O)NCCc3ccc(Cl)cc3Cl)c2)[nH]c2ccccc12 [Example 1(d), (2-{4-Chloro-3-[2-(2,4-dichloro-phenyl)-ethylsulfamoyl]-phenyl}-1H-indol-3-yl)-acetic Acid]
1.5 nM | Cc1cccc2[nH]c(-c3ccc(Cl)c(S(=O)(=O)NC4CCCCC4)c3)c(CC(=O)O)c12 [Example 7, [2-(4-Chloro-3-cyclohexylsulfamoyl-phenyl)-4-methyl-1H-indol-3-yl]-acetic Acid]
4 nM | O=C(O)Cc1c(-c2ccc(Cl)c(S(=O)(=O)NCc3ccc(Cl)cc3Cl)c2)[nH]c2ccccc12 [Example 1(a), {2-[4-Chloro-3-(2,4-dichloro-benzylsulfamoyl)-phenyl]-1H-indol-3-yl}-acetic Acid]
5.3 nM | CC(C(=O)O)c1c(-c2ccc(Cl)c(S(=O)(=O)NC3CCCCC3)c2)[nH]c2ccccc12 (stereo not shown) [Example 14, 2-[2-(4-Chloro-3-cyclohexylsulfamoyl-phenyl)-1H-indol-3-yl]-propionic Acid]
12 nM | O=C(O)Cc1c(-c2ccc(Cl)c(S(=O)(=O)NCc3cc(Cl)cc(Cl)c3)c2)[nH]c2ccccc12 [Example 1(c), {2-[4-Chloro-3-(3,5-dichloro-benzylsulfamoyl)-phenyl]-1H-indol-3-yl}-acetic Acid]
0.7 nM | O=C(O)Cc1c(-c2ccc(Cl)c(S(=O)(=O)NC3CCCCC3)c2)[nH]c2cccc(F)c12 [Example 6, [2-(4-Chloro-3-cyclohexylsulfamoyl-phenyl)-4-fluoro-1H-indol-3-yl]-acetic Acid]
12 nM | O=C(O)Cc1c(-c2ccc(Cl)c(NS(=O)(=O)Cc3cccc(Cl)c3)c2)[nH]c2ccccc12 [Example 16, {2-[4-Chloro-3-(3-chloro-phenylmethanesulfonylamino)-phenyl]-1H-indol-3-yl}-acetic Acid]
509 nM | CNC(=O)Cc1c(-c2ccc(Cl)c(S(=O)(=O)NC3CCCCC3)c2)[nH]c2ccccc12 [Example 3, 2-[2-(4-Chloro-3-cyclohexylsulfamoyl-phenyl)-1H-indol-3-yl]-N-methyl-acetamide]

Reference: US20090176804A1, “2-PHENYL-INDOLES AS PROSTAGLANDIN D2 RECEPTOR ANTAGONISTS” (priority 2006, published 2009)
